# Measured values as given in PubChem BioAssay AID270 (DTP/NCI, 2004).
# Values joined by “and” are separate entries in the source; they are usually repeats but may differ in a detail not shown here. Equal values may be shown once. Inconclusive results are not listed.
# Tested on: BDF1 mice, s.c. Lewis lung carcinoma, T/C %
# Assay: NCI In Vivo Anticancer Drug Screen. Data for tumor model Lewis Lung Carcinoma (subcutaneous) in B6D2F1 (BDF1) mice
# How it was run: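 Tumor-bearing mice were treated with test compound, and either survival or tumor size was recorded. Values are the treated-group measurement divided by that of the vehicle-treated control group.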
smiles,measurement,setting,value
Cc1c(N)nc([C@H](CC(N)=O)NC[C@H](N)C(N)=O)nc1C(=O)N[C@H](C(=O)N[C@H](C)[C@@H](O)[C@H](C)C(=O)N[C@H](C(=O)NCCc1nc(-c2nc(C(=O)NCCC[S+](C)C)cs2)cs1)[C@@H](C)O)C(OC1OC(CO)C(O)C(O)C1OC1OC(CO)C(O)C(OC(N)=O)C1O)c1cnc[nH]1 (stereo partly specified),T/C,"endpoint: mean survival time, dose: 4.0 mg/kg/injection, schedule: Q01DX009 (ip), vehicle: saline, higher = longer survival",111 % of control
same,T/C,"endpoint: mean survival time, dose: 8.0 mg/kg/injection, schedule: Q01DX009 (ip), vehicle: saline, higher = longer survival",102 % of control
same,T/C,"endpoint: mean survival time, dose: 12.0 mg/kg/injection, schedule: Q01DX009 (ip), vehicle: saline, higher = longer survival",107 % of control
same,T/C,"endpoint: median survival time, dose: 1.0 mg/kg/injection, schedule: Q01DX009 (ip), vehicle: water, higher = longer survival",90 % of control
same,T/C,"endpoint: median survival time, dose: 1.7 mg/kg/injection, schedule: Q01DX009 (ip), vehicle: water, higher = longer survival",94 % of control
same,T/C,"endpoint: median survival time, dose: 2.0 mg/kg/injection, schedule: Q01DX009 (ip), vehicle: saline, higher = longer survival",107 % of control
same,T/C,"endpoint: median survival time, dose: 2.0 mg/kg/injection, schedule: Q01DX009 (ip), vehicle: water, higher = longer survival",112 % of control
same,T/C,"endpoint: median survival time, dose: 2.9 mg/kg/injection, schedule: Q01DX009 (ip), vehicle: water, higher = longer survival",94 % of control
same,T/C,"endpoint: median survival time, dose: 3.12 mg/kg/injection, schedule: Q04DX003 (sc), vehicle: saline, higher = longer survival",90 % of control and 92 % of control
same,T/C,"endpoint: median survival time, dose: 4.0 mg/kg/injection, schedule: Q01DX009 (ip), vehicle: water, higher = longer survival",94 % of control and 118 % of control
same,T/C,"endpoint: median survival time, dose: 4.0 mg/kg/injection, schedule: Q04DX003 (ip), vehicle: saline, higher = longer survival",96 % of control and 110 % of control
same,T/C,"endpoint: median survival time, dose: 4.8 mg/kg/injection, schedule: Q01DX009 (ip), vehicle: water, higher = longer survival",118 % of control
same,T/C,"endpoint: median survival time, dose: 6.25 mg/kg/injection, schedule: Q04DX003 (sc), vehicle: saline, higher = longer survival",96 % of control
same,T/C,"endpoint: median survival time, dose: 8.0 mg/kg/injection, schedule: Q01DX009 (ip), vehicle: water, higher = longer survival",102 % of control and 112 % of control
same,T/C,"endpoint: median survival time, dose: 8.0 mg/kg/injection, schedule: Q04DX003 (ip), vehicle: saline, higher = longer survival",96 % of control and 114 % of control
same,T/C,"endpoint: median survival time, dose: 12.0 mg/kg/injection, schedule: Q01DX009 (ip), vehicle: saline, higher = longer survival",100 % of control
same,T/C,"endpoint: median survival time, dose: 12.5 mg/kg/injection, schedule: Q04DX003 (sc), vehicle: saline, higher = longer survival",102 % of control and 108 % of control
same,T/C,"endpoint: median survival time, dose: 16.0 mg/kg/injection, schedule: Q04DX003 (ip), vehicle: saline, higher = longer survival",84 % of control and 112 % of control
same,T/C,"endpoint: median survival time, dose: 22.2 mg/kg/injection, schedule: Q01DX009 (ip), vehicle: water, higher = longer survival",82 % of control
same,T/C,"endpoint: median survival time, dose: 25.0 mg/kg/injection, schedule: Q04DX003 (sc), vehicle: saline, higher = longer survival",98 % of control
same,T/C,"endpoint: median survival time, dose: 32.0 mg/kg/injection, schedule: Q04DX003 (ip), vehicle: saline, higher = longer survival",50 % of control and 108 % of control
same,T/C,"endpoint: median survival time, dose: 50.0 mg/kg/injection, schedule: Q04DX003 (sc), vehicle: saline, higher = longer survival",117 % of control and 118 % of control
same,T/C,"endpoint: median survival time, dose: 64.0 mg/kg/injection, schedule: Q04DX003 (ip), vehicle: saline, higher = longer survival",37 % of control and 97 % of control
same,T/C,"endpoint: median survival time, dose: 100.0 mg/kg/injection, schedule: Q04DX003 (sc), vehicle: saline, higher = longer survival",116 % of control and 124 % of control
same,T/C,"endpoint: median tumor weight (est.), dose: 2.0 mg/kg/injection, schedule: Q01DX009 (ip), vehicle: saline, higher = larger tumour",71 % of control
same,T/C,"endpoint: median tumor weight (est.), dose: 2.0 mg/kg/injection, schedule: Q01DX009 (ip), vehicle: water, higher = larger tumour",34 % of control
same,T/C,"endpoint: median tumor weight (est.), dose: 4.0 mg/kg/injection, schedule: Q01DX009 (ip), vehicle: saline, higher = larger tumour",77 % of control
same,T/C,"endpoint: median tumor weight (est.), dose: 4.0 mg/kg/injection, schedule: Q01DX009 (ip), vehicle: water, higher = larger tumour",24 % of control
same,T/C,"endpoint: median tumor weight (est.), dose: 8.0 mg/kg/injection, schedule: Q01DX009 (ip), vehicle: saline, higher = larger tumour",34 % of control
same,T/C,"endpoint: median tumor weight (est.), dose: 8.0 mg/kg/injection, schedule: Q01DX009 (ip), vehicle: water, higher = larger tumour",8 % of control
same,T/C,"endpoint: median tumor weight (est.), dose: 16.0 mg/kg/injection, schedule: Q01DX009 (ip), vehicle: saline, higher = larger tumour",26 % of control
COc1ccc(Nc2ccnc3cc(Cl)ccc23)cc1CN(CCCl)CCCl,T/C,"endpoint: mean tumor weight, dose: 0.06 mg/kg/injection, schedule: Q01DX011 (ip), vehicle: other, higher = larger tumour",113 % of control
same,T/C,"endpoint: mean tumor weight, dose: 0.12 mg/kg/injection, schedule: Q01DX011 (ip), vehicle: other, higher = larger tumour",94 % of control
same,T/C,"endpoint: mean tumor weight, dose: 0.25 mg/kg/injection, schedule: Q01DX011 (ip), vehicle: other, higher = larger tumour",85 % of control
same,T/C,"endpoint: mean tumor weight, dose: 0.5 mg/kg/injection, schedule: Q01DX011 (ip), vehicle: other, higher = larger tumour",26 % of control and 44 % of control
same,T/C,"endpoint: mean tumor weight, dose: 1.0 mg/kg/injection, schedule: Q01DX011 (ip), vehicle: other, higher = larger tumour",32 % of control
O=S(=O)(O)O,T/C,"endpoint: median survival time, dose: 6.25 mg/kg/injection, schedule: Q01DX009 (ip), vehicle: Klucel (hydroxypropylcellulose) (HPC), higher = longer survival",94 % of control and 97 % of control and 121 % of control
same,T/C,"endpoint: median survival time, dose: 12.5 mg/kg/injection, schedule: Q01DX009 (ip), vehicle: Klucel (hydroxypropylcellulose) (HPC), higher = longer survival",88 % of control and 91 % of control and 94 % of control
same,T/C,"endpoint: median survival time, dose: 25.0 mg/kg/injection, schedule: Q01DX009 (ip), vehicle: Klucel (hydroxypropylcellulose) (HPC), higher = longer survival",94 % of control and 102 % of control and 107 % of control
same,T/C,"endpoint: median survival time, dose: 50.0 mg/kg/injection, schedule: Q01DX009 (ip), vehicle: Klucel (hydroxypropylcellulose) (HPC), higher = longer survival",70 % of control and 94 % of control
same,T/C,"endpoint: median survival time, dose: 100.0 mg/kg/injection, schedule: Q01DX009 (ip), vehicle: Klucel (hydroxypropylcellulose) (HPC), higher = longer survival",35 % of control and 42 % of control
same,T/C,"endpoint: median survival time, dose: 200.0 mg/kg/injection, schedule: Q01DX009 (ip), vehicle: Klucel (hydroxypropylcellulose) (HPC), higher = longer survival",30 % of control and 32 % of control
COc1ccc(-c2c(CC(=O)O)c3cc(OC)ccc3n2Cc2ccc(Cl)cc2)cc1,T/C,"endpoint: mean tumor weight, dose: 222.0 mg/kg/injection, schedule: Q01DX011 (ip), vehicle: other, higher = larger tumour",164 % of control
same,T/C,"endpoint: mean tumor weight, dose: 333.0 mg/kg/injection, schedule: Q01DX011 (ip), vehicle: other, higher = larger tumour",151 % of control
C=C1C(=O)O[C@H]2C1[C@H](OC(=O)/C(C)=C\COC(C)=O)C[C@]1(CO1)[C@@H]1[C@H](O)[C@H]3O[C@@]3(C)[C@@H]12 (stereo partly specified),T/C,"endpoint: median survival time, dose: 3.12 mg/kg/injection, schedule: Q01DX009 (ip), vehicle: other, higher = longer survival",86 % of control
same,T/C,"endpoint: median survival time, dose: 6.25 mg/kg/injection, schedule: Q01DX009 (ip), vehicle: other, higher = longer survival",89 % of control
same,T/C,"endpoint: median survival time, dose: 12.5 mg/kg/injection, schedule: Q01DX009 (ip), vehicle: other, higher = longer survival",97 % of control
same,T/C,"endpoint: median survival time, dose: 25.0 mg/kg/injection, schedule: Q01DX009 (ip), vehicle: other, higher = longer survival",99 % of control
O=c1ccn(C2OC(CO)C(O)C2O)c(=O)[nH]1 (stereo unspecified),T/C,"endpoint: median survival time, dose: 0.2 mg/kg/injection, schedule: Q01DX011 (adlb), vehicle: water, higher = longer survival",97 % of control and 119 % of control
same,T/C,"endpoint: median survival time, dose: 0.6 mg/kg/injection, schedule: Q01DX011 (adlb), vehicle: water, higher = longer survival",103 % of control
same,T/C,"endpoint: median survival time, dose: 1.0 mg/kg/injection, schedule: Q01DX011 (adlb), vehicle: water, higher = longer survival",86 % of control
same,T/C,"endpoint: median survival time, dose: 1.5 mg/kg/injection, schedule: Q01DX011 (adlb), vehicle: water, higher = longer survival",106 % of control
same,T/C,"endpoint: median survival time, dose: 2.0 mg/kg/injection, schedule: Q01DX011 (adlb), vehicle: water, higher = longer survival",76 % of control and 100 % of control
CC1CN1P(=O)(N1CC1C)N1CC1C (stereo unspecified),T/C,"endpoint: median survival time, dose: 6.25 mg/kg/injection, schedule: Q01DX009 (ip), vehicle: saline, higher = longer survival",98 % of control
same,T/C,"endpoint: median survival time, dose: 12.5 mg/kg/injection, schedule: Q01DX009 (ip), vehicle: saline, higher = longer survival",90 % of control
same,T/C,"endpoint: median survival time, dose: 25.0 mg/kg/injection, schedule: Q01DX009 (ip), vehicle: saline, higher = longer survival",89 % of control
OC(CBr)C(O)C(O)C(O)CBr (stereo unspecified),T/C,"endpoint: mean tumor weight (est.), dose: 75.0 mg/kg/injection, schedule: Q01DX009 (ip), vehicle: Klucel (hydroxypropylcellulose) (HPC), higher = larger tumour",107 % of control
same,T/C,"endpoint: mean tumor weight (est.), dose: 150.0 mg/kg/injection, schedule: Q01DX009 (ip), vehicle: Klucel (hydroxypropylcellulose) (HPC), higher = larger tumour",92 % of control
same,T/C,"endpoint: mean tumor weight (est.), dose: 300.0 mg/kg/injection, schedule: Q01DX009 (ip), vehicle: Klucel (hydroxypropylcellulose) (HPC), higher = larger tumour",63 % of control
same,T/C,"endpoint: mean tumor weight, dose: 25.0 mg/kg/injection, schedule: Q01DX011 (ip), vehicle: saline, higher = larger tumour",103 % of control
same,T/C,"endpoint: mean tumor weight, dose: 50.0 mg/kg/injection, schedule: Q01DX011 (ip), vehicle: saline, higher = larger tumour",82 % of control
same,T/C,"endpoint: mean tumor weight, dose: 100.0 mg/kg/injection, schedule: Q01DX011 (ip), vehicle: saline, higher = larger tumour",46 % of control and 51 % of control
same,T/C,"endpoint: mean tumor weight, dose: 400.0 mg/kg/injection, schedule: Q01DX011 (ip), vehicle: saline, higher = larger tumour",118 % of control
same,T/C,"endpoint: median survival time, dose: 100.0 mg/kg/injection, schedule: Q01DX009 (ip), vehicle: saline, higher = longer survival",107 % of control
same,T/C,"endpoint: median survival time, dose: 150.0 mg/kg/injection, schedule: Q01DX009 (ip), vehicle: Klucel (hydroxypropylcellulose) (HPC), higher = longer survival",113 % of control
same,T/C,"endpoint: median survival time, dose: 200.0 mg/kg/injection, schedule: Q01DX009 (ip), vehicle: saline, higher = longer survival",102 % of control
same,T/C,"endpoint: median survival time, dose: 400.0 mg/kg/injection, schedule: Q01DX009 (ip), vehicle: saline, higher = longer survival",107 % of control
COc1cccc(/C=C/[N+](=O)[O-])c1,T/C,"endpoint: median survival time, dose: 20.0 mg/kg/injection, schedule: Q01DX009 (ip), vehicle: saline with Tween-80, higher = longer survival",104 % of control
COc1cc2c(c(OC)c1OC)-c1ccc(OC)c(=O)cc1[C@@H](NC(=O)CF)CC2,T/C,"endpoint: median survival time, dose: 0.04 mg/kg/injection, schedule: Q01DX009 (ip), vehicle: saline with Tween-80, higher = longer survival",100 % of control
same,T/C,"endpoint: median survival time, dose: 0.09 mg/kg/injection, schedule: Q01DX009 (ip), vehicle: saline with Tween-80, higher = longer survival",95 % of control
same,T/C,"endpoint: median survival time, dose: 0.18 mg/kg/injection, schedule: Q01DX009 (ip), vehicle: saline with Tween-80, higher = longer survival",95 % of control
